Values of other authors in US10945968B2, “Memantine transdermal delivery systems” (Corium, Inc., priority 2016, dated 2021).

Conditions: DRUGBANK Accession No. DB01043

SMILES: C[C@]12CC3C[C@](C)(C1)C[C@@](N)(C3)C2 [Memantine, 3,5-dimethyladamantan-1-amine]
- Log P reported range: 3.31-2.07
